Measured values reported in patent US10159640B2, “Prebiotic oral care compositions containing amino acids” (COLGATE-PALMOLIVE COMPANY, priority 2013, dated 2018).

What was measured:
Test in all cases: Biofilm growth assay in BHI, crystal violet
Assay type in all cases: cell-based
Settings in all cases: control = 1
Streptococcus sanguinis = system: Streptococcus sanguinis
Procedure: (§1) The increase in biofilm formation of the tested bacteria in response to selected compounds (Met-Pro, Phe-Glu) was investigated by setting up biofilm growth assays in a nutritionally rich medium (brain heart infusion broth (BHI), Oxoid), over 48 hours. Late exponential growth phase liquid cultures were prepared by transferring the respective bacterium from blood agar plates to BHI and overnight incubation at 37° C. in an anaerobic atmosphere for A. viscosus, V. parvula, F. nucleatum, P. gingivalis, P. intermedia, T. forsythia, A. naeslundii, and C. sputigena, and in a 5% CO2 environment for S. salivarius, S. sanguinis, S. mitis, A. actinomycetemcomitans, S. mutans, and S. gordonii. Overnight cultures were transferred to BHI and adjusted to a concentration of 1×10^7 CFU/ml by measuring the optical density at 600 nm (OD600) (BioRad SmartSpec 3000). For each strain, 200 μl of the bacterial suspension was added to a 96-well plate containing 20 μl of the respective di-peptides. Final concentrations of the di-peptides were set to 5, 10, 20 and 25 μmol/ml. […] Additionally, for each bacterium tested, a background control, to correct for background staining, was added. This background control contained the bacterium tested and 0.03 weight % chlorhexidine, as an antiseptic. Plates were incubated as previously described. After 48 hrs the supernatant was removed from the wells of the plates. The wells were washed twice with 1×100 μL PBS (phosphate buffered saline), fixed for 20 minutes with 96% vol. ethanol (96% vol. solution in water) and the biofilm retained at the bottom of the wells was stained with 1 weight % crystal violet (1 weight % solution in water). The bound dye was dissolved with 5% vol. acetic acid (5% vol. solution in water). Quantification of the stained biofilm was performed by measuring the absorbance at 630 nm using a Multiskan Ascent microplate reader (Thermo Scientific).
(§2) The experiment was carried out on three different days (thus providing 3 biological replicas) and each day the experiment was carried out in quadruple (thus providing 4 technical replicas) for each combination of bacterium with dipeptide and for each control. For each day and for each combination, the average (mean) of the values obtained (as detailed above) for the four technical replicas was calculated to provide a single value for each combination on each day. The values shown in Tables 7 to 8, below, are the average (mean) of the three single values obtained for each combination of bacterium with dipeptide.

Streptococcus salivarius = system: Streptococcus salivarius
Procedure: as §1, §2

Actinomyces naeslundii = system: Actinomyces naeslundii
Procedure: as §1, §2

Streptococcus mutans = system: Streptococcus mutans
Procedure: as §1, §2

Fusobacterium nucleatum = system: Fusobacterium nucleatum
Procedure: as §1, §2

Streptococcus gordonii = system: Streptococcus gordonii
Procedure: as §1, §2

Porphyromonas gingivalis = system: Porphyromonas gingivalis
Procedure: as §1, §2

Capnocytophaga sputigena = system: Capnocytophaga sputigena
Procedure: as §1, §2

Tannerella forsythia = system: Tannerella forsythia
Procedure: as §1, §2

Actinomyces viscosus = system: Actinomyces viscosus
Procedure: as §1, §2

[1] = system: Aggregatibacter actinomycetemcomitans
Procedure: as §1, §2

Veillonella parvula = system: Veillonella parvula
Procedure: as §1, §2

Prevotella intermedia = system: Prevotella intermedia
Procedure: as §1, §2

Streptococcus mitis = system: Streptococcus mitis
Procedure: as §1, §2

Substance: Met-Pro
- biofilm growth: OD 630 nm (crystal violet) at 48 hrs divided by OD of control (Streptococcus sanguinis; 5 μmol/ml): 1.1768
- biofilm growth: OD 630 nm (crystal violet) at 48 hrs divided by OD of control (Streptococcus sanguinis; 10 μmol/ml): 1.7015
- biofilm growth: OD 630 nm (crystal violet) at 48 hrs divided by OD of control (Streptococcus sanguinis; 20 μmol/ml): 2.1767
- biofilm growth: OD 630 nm (crystal violet) at 48 hrs divided by OD of control (Streptococcus sanguinis; 25 μmol/ml): 1.6580
- biofilm growth: OD 630 nm (crystal violet) at 48 hrs divided by OD of control (Streptococcus salivarius; 5 μmol/ml): 0.8003
- biofilm growth: OD 630 nm (crystal violet) at 48 hrs divided by OD of control (Streptococcus salivarius; 10 μmol/ml): 0.9847
- biofilm growth: OD 630 nm (crystal violet) at 48 hrs divided by OD of control (Streptococcus salivarius; 20 μmol/ml): 1.0385
- biofilm growth: OD 630 nm (crystal violet) at 48 hrs divided by OD of control (Streptococcus salivarius; 25 μmol/ml): 1.4734
- biofilm growth: OD 630 nm (crystal violet) at 48 hrs divided by OD of control (Actinomyces naeslundii; 5 μmol/ml): 1.1703
- biofilm growth: OD 630 nm (crystal violet) at 48 hrs divided by OD of control (Actinomyces naeslundii; 10 μmol/ml): 0.9986
- biofilm growth: OD 630 nm (crystal violet) at 48 hrs divided by OD of control (Actinomyces naeslundii; 20 μmol/ml): 0.4130
- biofilm growth: OD 630 nm (crystal violet) at 48 hrs divided by OD of control (Actinomyces naeslundii; 25 μmol/ml): 0.1281
- biofilm growth: OD 630 nm (crystal violet) at 48 hrs divided by OD of control (Streptococcus mutans; 5 μmol/ml): 0.0252
- biofilm growth: OD 630 nm (crystal violet) at 48 hrs divided by OD of control (Streptococcus mutans; 10 μmol/ml): 0.0118
- biofilm growth: OD 630 nm (crystal violet) at 48 hrs divided by OD of control (Streptococcus mutans; 20 μmol/ml): 0.9625
- biofilm growth: OD 630 nm (crystal violet) at 48 hrs divided by OD of control (Streptococcus mutans; 25 μmol/ml): 1.3235
- biofilm growth: OD 630 nm (crystal violet) at 48 hrs divided by OD of control (Fusobacterium nucleatum; 5 μmol/ml): 0.6087
- biofilm growth: OD 630 nm (crystal violet) at 48 hrs divided by OD of control (Fusobacterium nucleatum; 10 μmol/ml): 0.5568
- biofilm growth: OD 630 nm (crystal violet) at 48 hrs divided by OD of control (Fusobacterium nucleatum; 20 μmol/ml): 0.6796
- biofilm growth: OD 630 nm (crystal violet) at 48 hrs divided by OD of control (Fusobacterium nucleatum; 25 μmol/ml): 0.5216
- biofilm growth: OD 630 nm (crystal violet) at 48 hrs divided by OD of control (Streptococcus gordonii; 5 μmol/ml): 1.4212
- biofilm growth: OD 630 nm (crystal violet) at 48 hrs divided by OD of control (Streptococcus gordonii; 10 μmol/ml): 1.8572
- biofilm growth: OD 630 nm (crystal violet) at 48 hrs divided by OD of control (Streptococcus gordonii; 20 μmol/ml): 1.6395
- biofilm growth: OD 630 nm (crystal violet) at 48 hrs divided by OD of control (Streptococcus gordonii; 25 μmol/ml): 1.4372
- biofilm growth: OD 630 nm (crystal violet) at 48 hrs divided by OD of control (Porphyromonas gingivalis; 5 μmol/ml): 0.6831
- biofilm growth: OD 630 nm (crystal violet) at 48 hrs divided by OD of control (Porphyromonas gingivalis; 10 μmol/ml): 0.7344
- biofilm growth: OD 630 nm (crystal violet) at 48 hrs divided by OD of control (Porphyromonas gingivalis; 20 μmol/ml): 0.8922
- biofilm growth: OD 630 nm (crystal violet) at 48 hrs divided by OD of control (Porphyromonas gingivalis; 25 μmol/ml): 0.4990
- biofilm growth: OD 630 nm (crystal violet) at 48 hrs divided by OD of control (Capnocytophaga sputigena; 5 μmol/ml): 0.2411
- biofilm growth: OD 630 nm (crystal violet) at 48 hrs divided by OD of control (Capnocytophaga sputigena; 10 μmol/ml): 0.1949
- biofilm growth: OD 630 nm (crystal violet) at 48 hrs divided by OD of control (Capnocytophaga sputigena; 20 μmol/ml): 0.1660
- biofilm growth: OD 630 nm (crystal violet) at 48 hrs divided by OD of control (Capnocytophaga sputigena; 25 μmol/ml): 0.0138
- biofilm growth: OD 630 nm (crystal violet) at 48 hrs divided by OD of control (Tannerella forsythia; 5 μmol/ml): 0.4857
- biofilm growth: OD 630 nm (crystal violet) at 48 hrs divided by OD of control (Tannerella forsythia; 10 μmol/ml): 0.4691
- biofilm growth: OD 630 nm (crystal violet) at 48 hrs divided by OD of control (Tannerella forsythia; 20 μmol/ml): 0.2726
- biofilm growth: OD 630 nm (crystal violet) at 48 hrs divided by OD of control (Tannerella forsythia; 25 μmol/ml): 0.1909
- biofilm growth: OD 630 nm (crystal violet) at 48 hrs divided by OD of control (Actinomyces viscosus; 5 μmol/ml): 0.4286
- biofilm growth: OD 630 nm (crystal violet) at 48 hrs divided by OD of control (Actinomyces viscosus; 10 μmol/ml): 0.4021
- biofilm growth: OD 630 nm (crystal violet) at 48 hrs divided by OD of control (Actinomyces viscosus; 20 μmol/ml): 0.1766
- biofilm growth: OD 630 nm (crystal violet) at 48 hrs divided by OD of control (Actinomyces viscosus; 25 μmol/ml): 0.0355
- biofilm growth: OD 630 nm (crystal violet) at 48 hrs divided by OD of control ([1]; 5 μmol/ml): 0.8177
- biofilm growth: OD 630 nm (crystal violet) at 48 hrs divided by OD of control ([1]; 10 μmol/ml): 0.5095
- biofilm growth: OD 630 nm (crystal violet) at 48 hrs divided by OD of control ([1]; 20 μmol/ml): 0.2556
- biofilm growth: OD 630 nm (crystal violet) at 48 hrs divided by OD of control ([1]; 25 μmol/ml): 0.1103
- biofilm growth: OD 630 nm (crystal violet) at 48 hrs divided by OD of control (Veillonella parvula; 5 μmol/ml): 0.2845
- biofilm growth: OD 630 nm (crystal violet) at 48 hrs divided by OD of control (Veillonella parvula; 10 μmol/ml): 0.2886
- biofilm growth: OD 630 nm (crystal violet) at 48 hrs divided by OD of control (Veillonella parvula; 20 μmol/ml): 0.1745
- biofilm growth: OD 630 nm (crystal violet) at 48 hrs divided by OD of control (Veillonella parvula; 25 μmol/ml): 0.2121
- biofilm growth: OD 630 nm (crystal violet) at 48 hrs divided by OD of control (Prevotella intermedia; 5 μmol/ml): 1.2520
- biofilm growth: OD 630 nm (crystal violet) at 48 hrs divided by OD of control (Prevotella intermedia; 10 μmol/ml): 0.9773
- biofilm growth: OD 630 nm (crystal violet) at 48 hrs divided by OD of control (Prevotella intermedia; 20 μmol/ml): 0.2095
- biofilm growth: OD 630 nm (crystal violet) at 48 hrs divided by OD of control (Prevotella intermedia; 25 μmol/ml): 0.1148
- biofilm growth: OD 630 nm (crystal violet) at 48 hrs divided by OD of control (Streptococcus mitis; 5 μmol/ml): 1.3974
- biofilm growth: OD 630 nm (crystal violet) at 48 hrs divided by OD of control (Streptococcus mitis; 10 μmol/ml): 1.4008
- biofilm growth: OD 630 nm (crystal violet) at 48 hrs divided by OD of control (Streptococcus mitis; 20 μmol/ml): 0.2959
- biofilm growth: OD 630 nm (crystal violet) at 48 hrs divided by OD of control (Streptococcus mitis; 25 μmol/ml): 0.0464
